Here are results for one molecule from US7078422B2, “Activator for peroxisome proliferator-activated receptor” (Nippon Chemiphar Co., Ltd., priority 2001, dated 2006).

The target in one test is T1, GAL4-hPPARγ LBD (Homo sapiens, UniProt P37231).
T1 construct: Receptor expression plasmid (GAL4-hPPARγ LBD, GAL4-hPPARδ LBD); expressed in transfected cells; host or cells: CV-1 cells
T1 sequence (P37231 238-503 limits assumed): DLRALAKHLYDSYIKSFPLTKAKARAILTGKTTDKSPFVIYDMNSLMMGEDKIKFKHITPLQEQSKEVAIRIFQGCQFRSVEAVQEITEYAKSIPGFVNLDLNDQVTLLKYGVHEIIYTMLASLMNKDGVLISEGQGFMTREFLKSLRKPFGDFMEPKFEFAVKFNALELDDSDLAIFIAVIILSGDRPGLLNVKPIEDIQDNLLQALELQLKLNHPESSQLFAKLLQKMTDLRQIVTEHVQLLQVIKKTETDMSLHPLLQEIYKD
The experiment in a line: PPARγ transactivation activity (GAL4 chimeric receptor luciferase reporter in CV-1 cells). In kind it is cell-based. The following applies: tested compound at 10^−5 M, control 10^−5 M Rosiglitazone set to 100%, DMSO alone 0%, 40 hours. The protocol:
(§1) The luciferase activity is calibrated by the β-GAL activity. A relative ligand activity relating to PPARγ-activating effect is calculated in the same manner (see the below-described Example 3).
(§2) (1) Measurement of PPARγ, δ Transactivation Activity
(§3) Each of PPARγ & δ transactivation activities of the tested compound [compound of Example 1 and known PPARγ agonist (Rosiglitazone) and known PPARδ agonist (L-165041)] was measured in the manner described below.
CV-1 was obtained from Tohoku University Aging Medical Laboratory, Medical Cell Collection Center. All test compounds were dissolved in dimethylsulfoxide (DMSO) to give a test sample of 0.1% concentration.
Receptor expression plasmid (GAL4-hPPARγ LBD, GAL4-hPPARδ LBD), Luciferase expression plasmid (UASx4-TK-LUC), and β-galactosidase expression plasmid (βGAL) similar to Kliewer, S. A., et al., ((1992) Nature, 358:771–774) were employed. […]
The culture medium was removed and the cells were washed with PBS twice. […] (luciferase activity) was measured by means of MLR-100 type Microluminoreader (available from Corona Electrics Co., Ltd.). […] A relative PPAR activity was calculated based on the following: 0% (luciferase activity (control value) of cells treated with DMSO (0.1% concentration, solvent) alone), 100% (luciferase activity of cells treated with a control reagent (PPARγ: 10^−5 M Rosiglitazone, PPARδ: 10^−4 M L-165041)).
(In general: A reporter such as luciferase makes a cellular process visible.)

The target of a further test is T2, GAL4-hPPARδ LBD (Homo sapiens, UniProt Q03181).
T2 construct: A chimeric receptor expression plasmid (GAL4-hPPARδ LBD); expressed in transfected cells; host or cells: CV-1 cells
T2 sequence (Q03181 211-439 limits assumed): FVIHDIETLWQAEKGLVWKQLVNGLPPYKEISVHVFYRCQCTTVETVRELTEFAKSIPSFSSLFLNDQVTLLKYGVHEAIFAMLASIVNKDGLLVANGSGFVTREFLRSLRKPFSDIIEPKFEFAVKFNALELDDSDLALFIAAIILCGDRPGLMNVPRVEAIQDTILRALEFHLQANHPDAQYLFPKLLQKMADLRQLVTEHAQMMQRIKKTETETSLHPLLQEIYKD
The experiment in a line: PPARδ transactivation activity (GAL4 chimeric receptor luciferase reporter in CV-1 cells). The note with it: tested compound at 10^−5 M, control 10^−4 M L-165041 set to 100%, DMSO alone 0%, 40 hours. The class given is cell-based. The method, then:
The PPARδ activating effect of the compound of the invention was determined by the following method:
A chimeric receptor expression plasmid (GAL4-hPPARδ LBD), a reporter plasmid (UASx4-TK-LUC) and β-galactosidase (β-GAL) are transfected into CV-1 cells by utilizing a lipofection reagent DMRIE-C (Life Technologies). Subsequently, it is incubated for 40 hours in the presence of a compound of the invention or a compound for comparison (GW-2433), and then the luciferase activity and β-GAL activity are measured on the soluble cells.
as §1, §2, §3
CV-1 was obtained from Tohoku University Aging Medical Laboratory, Medical Cell Collection Center. All test compounds were dissolved in dimethylsulfoxide (DMSO) to give a test sample of 0.1% concentration. […]
The culture medium was removed and the cells were washed with PBS twice. […] (luciferase activity) was measured by means of MLR-100 type Microluminoreader (available from Corona Electrics Co., Ltd.). […]

For `CC(C)c1oc(-c2ccccc2Cl)nc1CCCC(=O)c1ccc(CC(=O)O)cc1` [Example 1, [4-[4-[2-(2-Chlorophenyl)-5-isopropyloxazol-4-yl]butyryl]phenyl]acetic acid], on GAL4-hPPARγ LBD, the “PPAR activity (relative value) for PPARγ” value was 50%. For the same molecule, the “PPAR activity (relative value) for PPARδ” value at GAL4-hPPARδ LBD was determined as 93±3%.
